Test results reported in US20120214862A1, “MODULATION OF FACTOR 7 EXPRESSION” (ISIS Pharmaceuticals, Inc., priority 2009, published 2012).
In the oligonucleotide strings, read from the 5' end, every base follows the letter of its sugar. An asterisk marks phosphorothioate; unmarked linkages are phosphodiester. Other units and linkages are bracketed, terminal groups are in braces. A string of capitals states the bases alone. e = 2'-O-(2-methoxyethyl) (MOE); [5mC] = 5-methylcytosine; d = 2'-deoxy (DNA)

Tested on: human Factor 7 mRNA
Assay: Antisense inhibition of human Factor 7 mRNA in HepB3 cells, lipofectin, 50 nM, real-time RT-PCR
Assay type: cell-based
Conditions: Example 1; HepB3 cells, lipofectin, 50 nM, ~24 h, relative to untreated control cells
Description: Antisense oligonucleotides targeted to a Factor 7 nucleic acid were tested for their effects on Factor 7 mRNA in vitro. Cultured HepB3 cells at a density of 4,000 cells per well were transfected using lipofectin reagent with 50 nM antisense oligonucleotide. After a treatment period of approximately 24 hours, RNA was isolated from the cells and Factor 7 mRNA levels were measured by real-time RT-PCR, as described herein. Factor 7 mRNA levels were adjusted according to total RNA content as measured by RIBOGREEN®. Results are presented as percent inhibition of Factor 7, relative to untreated control cells.
(§1) Antisense oligonucleotides targeted to a Factor 7 nucleic acid were designed and tested for their effects on Factor 7 mRNA in vitro. Certain antisense oligonucleotides from Table 3 were also retested for their effects on Factor 7 mRNA in vitro. Cultured HepB3 cells at a density of 4,000 cells per well were transfected using lipofectin reagent with 50 nM antisense oligonucleotide. After a treatment period of approximately 24 hours, RNA was isolated from the cells and Factor 7 mRNA levels were measured by real-time RT-PCR, as described herein. Human Factor 7 primer probe set RTS 2927 was used to measure mRNA levels. Factor 7 mRNA levels were adjusted according to total RNA content as measured by RIBOGREEN®. Results are presented as percent inhibition of Factor 7, relative to untreated control.
as §1, with “tested” for “tested for their effects on Factor 7 mRNA in vitro. Certain antisense oligonucleotides from Table 3 were also retested”
These gapmers were designed by creating gapmers shifted slightly upstream and downstream (i.e. “microwalk”) of the original gapmers from Table 7. Gapmers were also created with various motifs, e.g. 5-10-5 MOE, 3-14-3 MOE, and 2-13-5 MOE. These gapmers were tested in vitro. Cultured HepB3 cells at a density of 4,000 cells per well were transfected using lipofectin reagent with 50 nM antisense oligonucleotide. After a treatment period of approximately 24 hours, RNA was isolated from the cells and Factor 7 mRNA levels were measured by real-time RT-PCR. Factor 7 mRNA levels were adjusted according to total RNA content, as measured by RIBOGREEN®. Results are presented as percent inhibition of Factor 7, relative to untreated control cells.

Substance	% Inhibition (human Factor 7 mRNA) [%]
407890 (antisense e[5mC]*eA*eG*eG*eG*dA*dG*d[5mC]*d[5mC]*d[5mC]*dG*dG*d[5mC]*d[5mC]*dG*e[5mC]*eA*eG*e[5mC]*eT) [compound 407890]	60
407891 (antisense e[5mC]*eA*eT*eG*eG*dA*d[5mC]*dT*dT*dG*dA*dG*dG*d[5mC]*dA*e[5mC]*eA*e[5mC]*eT*eG) [compound 407891]	66
407892 (antisense e[5mC]*e[5mC]*e[5mC]*e[5mC]*eA*dT*dT*d[5mC]*dT*dG*dG*d[5mC]*dA*dT*dG*eG*eA*e[5mC]*eT*eT) [compound 407892]	68
407893 (antisense eT*e[5mC]*eG*eA*eA*dG*dG*d[5mC]*dA*dG*dG*dG*dA*dG*dG*e[5mC]*eA*eG*eA*eA) [compound 407893]	33
407894 (antisense eG*eT*eT*e[5mC]*e[5mC]*dG*dG*d[5mC]*d[5mC]*d[5mC]*dT*d[5mC]*dG*dA*dA*eG*eG*e[5mC]*eA*eG) [compound 407894]	77
407895 (antisense e[5mC]*eA*e[5mC]*eA*e[5mC]*dA*dG*dA*dT*d[5mC]*dA*dG*d[5mC]*dT*dG*eG*eT*e[5mC]*eA*eT) [compound 407895]	72
407896 (antisense e[5mC]*eG*eT*eG*eT*dG*dG*dT*d[5mC]*dA*d[5mC]*dT*dG*d[5mC]*dA*eG*eT*eA*e[5mC]*eT) [compound 407896]	73
407897 (antisense eG*e[5mC]*eT*eT*eG*dG*dT*dG*d[5mC]*d[5mC]*d[5mC]*dG*dT*dG*dT*eG*eG*eT*e[5mC]*eA) [compound 407897]	77
407898 (antisense e[5mC]*e[5mC]*eA*eG*e[5mC]*dA*dG*dA*dG*dA*dG*dT*dA*d[5mC]*d[5mC]*e[5mC]*e[5mC]*eT*e[5mC]*eG) [compound 407898]	49
407901 (antisense eT*eG*eG*eT*eG*dT*dT*dG*dA*dT*d[5mC]*dA*dG*dG*dG*eT*e[5mC]*e[5mC]*e[5mC]*e[5mC]) [compound 407901]	89
407902 (antisense e[5mC]*eA*e[5mC]*e[5mC]*e[5mC]*dA*dG*dA*dT*dG*dG*dT*dG*dT*dT*eG*eA*eT*e[5mC]*eA) [compound 407902]	86
407903 (antisense e[5mC]*e[5mC]*eG*e[5mC]*eG*dG*dA*dG*dA*d[5mC]*d[5mC]*dA*d[5mC]*d[5mC]*d[5mC]*eA*eG*eA*eT*eG) [compound 407903]	98
407904 (antisense eG*eA*eA*eA*e[5mC]*dA*dG*dT*dG*dG*dG*d[5mC]*d[5mC]*dG*d[5mC]*eG*eG*eA*eG*eA) [compound 407904]	83
407905 (antisense e[5mC]*e[5mC]*eA*eG*eT*dT*d[5mC]*dT*dT*dG*dA*dT*dT*dT*dT*eG*eT*e[5mC]*eG*eA) [compound 407905]	40
407906 (antisense eA*e[5mC]*e[5mC]*eA*e[5mC]*dG*dG*dG*d[5mC]*dT*dG*dG*dT*dG*d[5mC]*eA*eG*eG*e[5mC]*eG) [compound 407906]	4
407907 (antisense eA*eA*eT*eG*eA*dG*dA*dA*dG*d[5mC]*dG*d[5mC]*dA*d[5mC]*dG*eA*eA*eG*eG*e[5mC]) [compound 407907]	35
407908 (antisense e[5mC]*e[5mC]*e[5mC]*e[5mC]*eA*dG*d[5mC]*d[5mC]*dG*d[5mC]*dT*dG*dA*d[5mC]*d[5mC]*eA*eA*eT*eG*eA) [compound 407908]	47
407909 (antisense e[5mC]*e[5mC]*eA*eT*e[5mC]*d[5mC]*dG*dA*dG*dT*dA*dG*d[5mC]*d[5mC]*dG*eG*e[5mC]*eA*e[5mC]*eA) [compound 407909]	77
407911 (antisense e[5mC]*e[5mC]*e[5mC]*e[5mC]*eT*dT*dG*d[5mC]*dA*dG*dG*dA*dG*dT*d[5mC]*e[5mC]*eT*eT*eG*e[5mC]) [compound 407911]	74

Substance	% Inhibition (human Factor 7 mRNA) [%]
407912 (antisense e[5mC]*e[5mC]*e[5mC]*eG*eG*dT*dA*dG*dT*dG*dG*dG*dT*dG*dG*e[5mC]*eA*eT*eG*eT) [compound 407912]	46
407913 (antisense eG*eA*eT*eG*e[5mC]*d[5mC]*d[5mC]*dG*dT*d[5mC]*dA*dG*dG*dT*dA*e[5mC]*e[5mC]*eA*e[5mC]*eG) [compound 407913]	74
407914 (antisense e[5mC]*e[5mC]*eA*eG*e[5mC]*dT*dG*dA*d[5mC]*dG*dA*dT*dG*d[5mC]*d[5mC]*e[5mC]*eG*eT*e[5mC]*eA) [compound 407914]	82
407915 (antisense eG*eT*eT*eG*e[5mC]*dG*d[5mC]*dA*dG*d[5mC]*d[5mC]*d[5mC]*dT*dG*dG*e[5mC]*e[5mC]*e[5mC]*e[5mC]*eA) [compound 407915]	83
407916 (antisense eG*eT*eG*eG*e[5mC]*d[5mC]*d[5mC]*dA*d[5mC]*dG*dG*dT*dT*dG*d[5mC]*eG*e[5mC]*eA*eG*e[5mC]) [compound 407916]	53
407917 (antisense eA*e[5mC]*eA*e[5mC]*e[5mC]*d[5mC]*d[5mC]*dA*dA*dA*dG*dT*dG*dG*d[5mC]*e[5mC]*e[5mC]*eA*e[5mC]*eG) [compound 407917]	70
407918 (antisense e[5mC]*e[5mC]*eT*eG*eG*dT*dG*dT*dA*d[5mC]*dA*d[5mC]*d[5mC]*d[5mC]*d[5mC]*eA*eA*eA*eG*eT) [compound 407918]	72
407919 (antisense eT*e[5mC]*eG*eA*eT*dG*dT*dA*d[5mC]*dT*dG*dG*dG*dA*dG*eA*e[5mC]*e[5mC]*e[5mC]*eT) [compound 407919]	84
407920 (antisense eT*eG*eA*eG*e[5mC]*dG*d[5mC]*dA*dT*dG*dA*dG*d[5mC]*dT*dT*eT*eT*eG*e[5mC]*eA) [compound 407920]	65
407921 (antisense e[5mC]*e[5mC]*eA*e[5mC]*eA*dG*dG*d[5mC]*d[5mC]*dA*dG*dG*dG*d[5mC]*dT*eG*e[5mC]*eT*eG*eG) [compound 407921]	65
407922 (antisense eT*e[5mC]*eG*eA*e[5mC]*dG*d[5mC]*dA*dG*d[5mC]*d[5mC]*dT*dT*dG*dG*e[5mC]*eT*eT*eT*e[5mC]) [compound 407922]	82
407923 (antisense e[5mC]*eA*eG*eG*eA*d[5mC]*dA*dG*dT*dT*d[5mC]*dG*dA*d[5mC]*dG*e[5mC]*eA*eG*e[5mC]*e[5mC]) [compound 407923]	76
407924 (antisense eG*eA*eT*eT*eT*dG*dG*dT*dG*d[5mC]*d[5mC]*dA*dG*dG*dA*e[5mC]*eA*eG*eT*eT) [compound 407924]	68
407925 (antisense eG*eA*eA*eT*eA*dT*dA*dT*dG*dG*dG*dA*dT*dT*dT*eG*eG*eT*eG*e[5mC]) [compound 407925]	64
407926 (antisense e[5mC]*e[5mC]*eA*eG*eG*dA*d[5mC]*dA*dA*d[5mC]*d[5mC]*dT*dT*dG*dG*e[5mC]*eA*e[5mC]*eT*e[5mC]) [compound 407926]	79
407927 (antisense eA*eG*eG*eT*eA*dA*dG*dG*dA*dG*dG*d[5mC]*dT*d[5mC]*dA*eG*e[5mC]*eT*eG*eG) [compound 407927]	55
407928 (antisense e[5mC]*eT*eT*eG*eG*d[5mC]*dT*dG*dA*dA*dG*dG*dG*dA*dG*eG*eT*eA*eA*eG) [compound 407928]	55
407929 (antisense eG*e[5mC]*eA*eG*eA*dG*d[5mC]*dA*dG*d[5mC]*dA*dG*d[5mC]*d[5mC]*dT*eG*eA*eG*eG*e[5mC]) [compound 407929]	53
407930 (antisense e[5mC]*eA*eA*eT*eG*dA*dA*dG*dG*d[5mC]*dA*dG*dA*dG*d[5mC]*eA*eG*e[5mC]*eA*eG) [compound 407930]	70
